Read-outs that look alike come from different tables or passages of the source.

Experiment [1] addresses T1, GHS1A-receptor (Homo sapiens, UniProt Q92847).
T1 construct: expressed in transfected cells; host or cells: HEK293
As to the kind of experiment: Ghrelin-agonism in HEK293 cells (intracellular calcium, FLIPR). Conditions: HEK293 cells permanently transfected with GHS1A-receptor, calcium fluorescence (fluo-4 or Kit-3), EC50 in M, read-out: pEC50 (converted). In kind it is cell-based. As to the method:
One day before the experiment, HEK293 cells, permanently transfected with the gene sequence for expression of the GHS1A-receptor, were seeded in poly-D-Lysine coated 96-well plates with clear bottom, and allowed to grow to […] of confluence on the next day.
Then, cells were incubated with the calcium-sensitive intracellular fluorescent probe fluo-4 or Kit-3 for 1 h at 37° C. Fluorescence representing free intracellular calcium in the cells was measured in a FLIPR-system (excitation at 488 nm, emission>520 nm). Test compounds were added to each well at the desired concentration and the fluorescence signal was simultaneously recorded in all wells. Release of intracellular calcium triggered by activation of the receptors upon addition of the test compound was measured as the fluorescence emitted from the complex of calcium and the fluorescent probe. The drug effect on fluorescence intensity was expressed relative to the maximal fluorescence intensity measured in cells exposed to the calcium-ionophore ionomycin.
For orientation: Calcium assays in cells follow changes in intracellular calcium, usually with a dye or a luminescent sensor.

Experiment [2] has as its system NMRI-mice. As to the kind of experiment: Acceleration of gastric emptying and small intestinal propulsion in NMRI-mice. In kind it is in vivo. Conditions: lowest active dose, subcutaneous, 30 min before phenol red test meal; for minimal effective dose: Mus musculus, sc. As to the method:
Male NMRI-mice weighing around 25 gram were fasted for 20 h and had free access to drinking water. Test compounds were administered to the animals by subcutaneous route 30 min before they were given a test meal by oral gavage. The test meal consisted of 0.3 ml of a chocolate nutridrink solution (1.0 kcal/ml) containing phenol red marker (5 mg/ml). Fifteen min after administration of the meal, the mice were sacrificed by CO2 gas inhalation. The phenol red content remaining in the stomach (extracted from the stomach with NaOH) was determined at 557 nm in a spectrophotometer and expressed as extinction units. Small intestinal propulsion was determined as the distance traveled by the phenol red marker through the intestine and expressed as a percentage of total small intestinal length (from the pylorus to the ileo-cecal junction).
The lowest dose that was active for each parameter was noted as the lowest active dose (LAD). Table 12 discloses LAD values.

The mark [3] stands for this setting: active when >60% of animals had phenol red front beyond 85% of small intestinal length, read-out: LAD (mg/kg) Small intestinal propulsion.
[4] abbreviates: stomach content 15 min after meal, active when >60% of animals below 0.9 extinction units, read-out: LAD (mg/kg) Gastric emptying.

T1 sequence (Q92847 whole entry): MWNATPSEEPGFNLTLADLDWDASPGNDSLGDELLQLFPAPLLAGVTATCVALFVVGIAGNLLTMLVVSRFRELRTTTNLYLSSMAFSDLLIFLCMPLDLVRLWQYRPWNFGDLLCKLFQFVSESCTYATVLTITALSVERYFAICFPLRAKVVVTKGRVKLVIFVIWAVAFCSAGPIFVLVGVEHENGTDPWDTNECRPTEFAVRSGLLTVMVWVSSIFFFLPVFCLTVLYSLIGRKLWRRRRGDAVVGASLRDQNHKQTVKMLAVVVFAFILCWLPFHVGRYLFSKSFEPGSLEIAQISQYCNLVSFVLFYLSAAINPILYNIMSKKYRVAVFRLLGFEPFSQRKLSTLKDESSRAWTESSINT

On to `CN(C)CCCC1(O)c2ccccc2CCCC1c1ccc(F)cc1` (racemic) [Compound 52], for which the EC50 in experiment [1] was 12.6 nM. Further, the minimal effective dose in experiment [2] (setting [3]) and in experiment [2] (setting [4]) was over 10 mg/kg each time. In the case of `COCCN(C)CCCC1(O)c2ccccc2CCCC1c1cccc(Cl)c1` (racemic) [Compound 42], the EC50 in experiment [1] is 50.1 nM. The minimal effective dose in experiment [2] (setting [3]) and in experiment [2] (setting [4]) was over 10 mg/kg each time. In the case of `Cc1ccc(C2CCOc3ccccc3C2(O)CCCN(C)C)cc1` (racemic) [Compound 92], the EC50 in experiment [1] is 63.1 nM. The minimal effective dose in experiment [2] (setting [3]) and in experiment [2] (setting [4]) was over 10 mg/kg throughout. On to `OC1(CCCN2CCCC2)c2ccccc2CCCC1c1ccc(Cl)cc1` (racemic) [Compound 48], for which the EC50 in experiment [1] is 31.6 nM. For the same compound, the minimal effective dose in experiment [2] (setting [3]) and in experiment [2] (setting [4]) was over 10 mg/kg each time. Take `CN(CCCC1(O)c2ccccc2CCCC1c1ccc(Cl)cc1)Cc1ccccc1` (racemic) [Compound 47]: in experiment [1], the EC50 was 5010 nM.

As for `CC(C)NCCCC1(O)c2ccccc2CCCC1c1ccc(Cl)cc1` (racemic) [Compound 45], in experiment [1], the EC50 was 794 nM. Take `CCN(CC)CCCC1(O)c2ccccc2OCCC1c1cncc(OC)c1` (racemic) [Compound 101]: the EC50 in experiment [1] is 2000 nM. Consider `CNCCC[C@@]1(O)c2ccccc2OCC[C@@H]1c1ccc(C)cc1` [Compound 11], for which the EC50 in experiment [1] was 398 nM. Further, the minimal effective dose in experiment [2] (setting [3]) and in experiment [2] (setting [4]) was over 10 mg/kg each time. As to `Cc1ccc([C@H]2CCOc3ccccc3[C@]2(O)CCCN(C)C)cn1` (racemic) [Compound 9], in experiment [1], the EC50 is 794 nM. On the same count and under the same terms, next, `CN(C)CCC[C@@]1(O)c2ccccc2OCC[C@@H]1c1ccccc1` (relative stereo) [Compound 8]: 316 nM.

As to `COCCN(C)CCC[C@@]1(O)c2ccccc2CCC[C@@H]1c1ccc(Cl)cc1` (relative stereo) [Compound 13], in experiment [1], the EC50 is 251 nM. For the same compound, the values for the minimal effective dose in experiment [2] (setting [3]) and in experiment [2] (setting [4]) were over 10 mg/kg and 10 mg/kg, respectively. The corresponding values for `CCN(CC)CCCC1(O)c2ccccc2CCCC1c1ccc(OC)cc1` (racemic) [Compound 67] are 158 nM, over 10 mg/kg and over 10 mg/kg. In the case of `CCN(CC)CCCC1(O)c2ccccc2CCCC1c1ccc2c(c1)OCO2` (racemic) [Compound 89], the EC50 in experiment [1] is 39.8 nM. Besides, the minimal effective dose in experiment [2] (setting [3]) and in experiment [2] (setting [4]) was over 10 mg/kg throughout. `COc1cncc(C2CCOc3ccccc3C2(O)CCCN(C)C)c1` (racemic) [Compound 100]: in experiment [1], the EC50 was 3980 nM.

On to `OC1(CCCN2CCCCC2)c2ccccc2CCCC1c1ccc(F)cc1F` (racemic) [Compound 59], for which the EC50 in experiment [1] is over 10000 nM. Consider `CN(C)CCCC1(O)c2ccccc2CCCC1c1ccccc1` (single isomer, unassigned) [Compound 105], for which the EC50 in experiment [1] is 15.8 nM. Moreover, the minimal effective dose in experiment [2] (setting [3]) was over 10 mg/kg; in experiment [2] (setting [4]), 10 mg/kg.

As to `COc1cc(C2CCOc3ccccc3C2(O)CCCN(C)C)ccc1Cl` (racemic) [Compound 97], in experiment [1], the EC50 was 25.1 nM. The minimal effective dose in experiment [2] (setting [3]) and in experiment [2] (setting [4]) was 2.5 mg/kg throughout.

On to `CN(C)CCCC1(O)c2ccccc2CCCC1c1ccccc1` (racemic) [Compound 106], for which the EC50 in experiment [1] is 63.1 nM. Besides, the minimal effective dose in experiment [2] (setting [3]) and in experiment [2] (setting [4]) was 10 mg/kg throughout. In the case of `Oc1ccc([C@H]2CCCc3ccccc3[C@]2(O)CCCN2CCOCC2)cc1` (racemic) [Compound 7], the EC50 in experiment [1] is over 10000 nM.

In the case of `CCN(CC)CCCC1(O)c2ccccc2OCCC1c1ccc(OC)nc1` (racemic) [Compound 103], the EC50 in experiment [1] is 6310 nM.

As for `CNCCCC1(O)c2ccccc2CCCC1c1ccc(OC)cc1` (racemic) [Compound 65], the EC50 in experiment [1] is 794 nM. With `CO[C@]1(CCCN(C)C)c2ccccc2CCC[C@@H]1c1ccc(Cl)cc1` (racemic) [Compound 15], the EC50 in experiment [1] was 1580 nM.

Take `COCCN(C)CCCC1(O)c2ccccc2CCCC1c1ccc2c(c1)OCO2` (racemic) [Compound 90]: the EC50 in experiment [1] was 158 nM.

In the case of `OC1CCN(CCCC2(O)c3ccccc3CCCC2c2ccc3c(c2)OCO3)C1` (racemic) [Compound 91], the EC50 in experiment [1] is 1000 nM. The same measure, in the same setting: next, `CN(CCCC1(O)c2ccccc2CCCC1c1cnc2ccccc2c1)Cc1ccccc1` (racemic) [Compound 87]: 1580 nM; `COCCN(C)CCCC1(O)c2ccccc2CCCC1c1cccc(C)c1` (racemic) [Compound 23]: 31.6 nM; `Cc1ccc([C@H]2CCOc3ccccc3[C@]2(O)CCCN(C)Cc2ccccc2)cc1` (racemic) [Compound 10]: 251 nM. The same measure, in the same setting: next, `COc1ccc(C2CCCc3ccccc3C2(O)CCCN(C)C)cc1OC` (racemic) [Compound 77]: 794 nM; `CN(C)CCCC1(O)c2ccccc2CCCC1c1ccc(Cl)cc1` (single isomer, unassigned) [Compound 5]: 1000 nM; `CN(C)CCCC1(O)c2ccccc2CCCC1c1ccc(Cl)cc1` (single isomer, unassigned) [Compound 6]: 10 nM. As to `CN(C)CCCC1(O)c2ccccc2CCCC1c1ccccc1` (single isomer, unassigned) [Compound 104], the EC50 in experiment [1] was 2000 nM. As for `CCN(CC)CCCC1(O)c2ccccc2CCCC1c1ccc(C)cc1` (racemic) [Compound 31], the EC50 in experiment [1] was 25.1 nM. With `Cc1ccc(C2CCCc3ccccc3C2(O)CCCN2CCN(C)CC2)cc1` (racemic) [Compound 33], the EC50 in experiment [1] was 3160 nM. Still for that read-out and setting: with `OC1(CCCN2CCNCC2)c2ccccc2CCCC1c1ccc(Cl)cc1` (racemic) [Compound 51] the figure was 1580 nM; with `COc1ccc(C2CCCc3ccccc3C2(O)CCCN)cc1` (racemic) [Compound 64], 25100 nM. For the compound GHRP-6 [reference compound], in experiment [2] (active when >60% of animals had phenol red front beyond 85% of small intestinal length), the “LAD (mg/kg) Small intestinal propulsion” value came out at 2.5 mg/kg. For the same compound, the “LAD (mg/kg) Gastric emptying” value in experiment [2] (stomach content 15 min after meal, active when >60% of animals below 0.9 extinction units) was 0.63 mg/kg. As to `COc1ccc(C2CCCc3ccccc3C2(O)CCCNCc2ccccc2)cc1` (racemic) [Compound 68], the EC50 in experiment [1] was over 31600 nM. Still for that read-out and setting: next, `CCN(CC)CCCC1(O)c2ccccc2CCCC1c1cccc(OC)c1` (racemic) [Compound 61]: 25.1 nM; `CN1CCN(CCCC2(O)c3ccccc3CCCC2c2ccc(F)cc2)CC1` (racemic) [Compound 55]: 1580 nM; `Cc1cccc(C2CCCc3ccccc3C2(O)CCCN2CCOCC2)c1` (racemic) [Compound 25]: 1580 nM.

As for `CCNCCCC1(O)c2ccccc2CCCC1c1ccc(Cl)cc1` (racemic) [Compound 44], the EC50 in experiment [1] is 501 nM. On the same count and under the same terms, next, `OC1CCN(CCCC2(O)c3ccccc3CCCC2c2ccc(Cl)cc2)C1` (racemic) [Compound 49]: 79.4 nM; `COCCN(C)CCCC1(O)c2ccccc2CCCC1c1ccc(OC)cc1` (racemic) [Compound 70]: 1260 nM; `Cc1ccc(C2CCCc3ccccc3C2(O)CCCN2CCCCC2)cc1` (racemic) [Compound 32]: 1000 nM.

For the compound `COc1ccc(C2CCCc3ccccc3C2(O)CCCN(C)Cc2ccccc2)cc1` (racemic) [Compound 69], the EC50 in experiment [1] was over 10000 nM. Same read-out and setting: with `COc1cccc(C2CCCc3ccccc3C2(O)CCCN(C)Cc2ccccc2)c1` (racemic) [Compound 62] the figure was 2510 nM; with `COCCN(C)CCCC1(O)c2ccccc2CCCC1c1ccc(Cl)c(OC)c1` (racemic) [Compound 75], 15.8 nM; with `COCCN(C)CCCC1(O)c2ccccc2CCCC1c1ccc(OC)c(OC)c1` (racemic) [Compound 79], 2000 nM. Same read-out and setting: with `COCCN(C)CCCC1(O)c2ccccc2CCCC1c1ccc(O)cc1` (racemic) [Compound 37] the figure was 2000 nM; with `CNCCCC1(O)c2ccccc2CCCC1c1ccc(OC)c(OC)c1` (racemic) [Compound 76], 1580 nM; with `Cc1cccc(C2CCCc3ccccc3C2(O)CCCN(C)Cc2ccccc2)c1` (racemic) [Compound 24], 3980 nM. The same measure, in the same setting: next, `OC1(CCCN2CCCCC2)c2ccccc2CCCC1c1ccc(Cl)cc1` (racemic) [Compound 50]: 794 nM; `CC(=O)N1CCN(CCCC2(O)c3ccccc3CCCC2c2cccc(C)c2)CC1` (racemic) [Compound 26]: 3160 nM.

The values above are taken from patent US9040725B2, “Benzocycloheptane and benzoxepine derivatives” (Janssen Pharmaceutica NV, priority 2008, dated 2015).
